“Also recorded” adds a separate entry of the source.
Tests used:
CD4+CD25+ Foxp3 cells = test: Regulatory T cell levels in mouse EAE model; format: in vivo; settings: for proliferation and amount of regulatory T cells: in the intestines and blood
Procedure: FIG. 4: is a graph showing the effect of propionic acid diet initiated at the time of disease induction (DI) compared to a control group on levels of CD4+CD25+ Foxp3 cells in mouse EAE model.
FIG. 5 is a graph showing the effect of lauric acid diet (250 μM and 500 μM) initiated at the time of disease induction (DI) compared to a control group on levels of CD4+CD25+ Foxp3 cells in mouse EAE model.
(§1) Mice kept under standardized conditions were fed on a normal diet enriched with long-chain fatty acids (30.9% lauric acid) and additionally with 200 μl of propionate daily administered orally. The propionate was given either at the time of disease induction (DI) or at the onset of the disease (OD).
(§2) For the induction of EAE the mice were anesthetized and administered two subcutaneous injections of a 50 μl emulsion applied to the left and right tail basis and comprising a total of 200 μg MOG35-55 (myelin oligodendrocyte glycoprotein) and 200 μg Freund's adjuvant (CFA) with 4 mg/ml of M. tuberculosis. Pertussistoxin ([…]) was given intraperitoneally on day 0 and 2 after the induction. The clinical assessment took place on a daily basis using a 5-point scale (SEM). The assessment was as follows: • 0=normal • 1=Tail paralysis impairing raising • 2=Gait ataxia • 3=Paraparesis of hind legs • 4=Tetraparesis • 5=Death Mice showing SEM 4 or 5 were excluded.

intestinal microbiota = test: Composition of the intestinal microbiome; format: in vivo, mice; settings: for effect on normal intestinal microbiota / number of bacteria degrading propionate and butyrate: intestinal microbiome
Description: The inventive acids, in particular propionic acid and butyric acid have an influence on the bowel physiology and the microbiome present there. In this way, they have an impact on the composition of the microbiome.

adiponectin = test: Clinical study of sodium propionate, adiponectin levels; format: in vivo, human; settings: 4 weeks after administration had been terminated, FIG. 6 column C
Description: FIG. 6 is a graph showing the effect of administration of sodium propionate in a clinical study in ten patients on adiponectin levels.

TGFβ = test: Gene expression profiling of signature cytokines in EAE mice; format: in vivo, mouse; settings: EAE mice fed propionic acid
Description: (§3) Moreover, the aliphatic chain length of the carboxylic acids also affects the […] autoimmunity as well as the regulatory response of Treg in an in vivo mouse model.

IL-10 = test: as above; format: in vivo, mouse; settings: EAE mice fed propionic acid
Description: as §3

Foxp3 = test: as above; format: in vivo, mouse; settings: EAE mice fed propionic acid
Description: as §3

[1] = tested on: experimental autoimmune encephalomyelitis (EAE); test: Mouse EAE model: relative axonal density, demyelination of white matter, CD3+ cells; format: in vivo; settings: versus control group, FIG. 3
Procedure: FIG. 3: is a graph showing the effect of propionic acid diet initiated at the time of disease induction (DI) or at the time of onset of symptoms (OD) compared to a diet control group on relative axonal density, demyelination in the white matter, and CD3+ cells in the mouse EAE model.
as §1, §2
The influence of propionic acid on the relative axonal density, the demyelination of the white matter, and the number of CD3+-cells is shown in FIG. 3.

[2] = tested on: experimental autoimmune encephalomyelitis (EAE); test: Mouse EAE model, daily clinical assessment on 5-point scale (SEM); format: in vivo
Procedure: as §1, §2

TH1 and TH17 cells = test: Th1/Th17 cells in small intestine and central nervous system, EAE model; format: in vivo; settings: mouse EAE, lauric acid enriched diet
Description: as §3

## CCCC(=O)O [butyric acid]
CD4+CD25+ Foxp3 cells
  proliferation and amount of regulatory T cells: positive effect
Intestinal microbiota
  effect on normal intestinal microbiota: only slightly affected
  number of bacteria degrading propionate and butyrate: increases significantly

## CCC(=O)[O-].[Na+] [sodium propionate]
adiponectin
  duration of the adiponectin effect: lasts longer than the administration duration

## CCC(=O)O [propionic acid]
TGFβ
  TGFβ gene expression: increased values; also recorded: significant increase
IL-10
  IL-10 gene expression: increased values; also recorded: significant increase
Foxp3
  Foxp3 gene expression: increased values; also recorded: significant increase
CD4+CD25+ Foxp3 cells
  proliferation and amount of regulatory T cells: positive effect
CD4+CD25+ Foxp3 cells; mouse EAE, propionic acid at disease induction (DI), versus control group, FIG. 4
  number of regulatory T cells (CD4+CD25+ Foxp3+ Treg): significant increase
[1]
  demyelination of the white matter: significant improvement
  number of CD3+ cells: significant improvement
  relative axonal density: significant improvement
Intestinal microbiota
  effect on normal intestinal microbiota: only slightly affected
  number of bacteria degrading propionate and butyrate: increases significantly
[2]; propionic acid given on the day of onset of disease (OD), FIG. 2
  disease course versus control group: significantly less favorable disease course
[2]; propionic acid given prophylactically (at disease induction, DI)
  disease course versus control group: significant improvement

## CCCCCCCCCCCC(=O)O [lauric acid, reference compound]
TH1 and TH17 cells
  TH1 and TH17 cells in the small intestine: significant reduction
  Th1/Th17 in the central nervous system: accumulation
CD4+CD25+ Foxp3 cells; lauric acid 250 μM and 500 μM, FIG. 5
  concentration dependence of the percentage reduction of CD4+CD25+ Foxp3 cells: dependent on concentration
CD4+CD25+ Foxp3 cells; lauric acid 250 μM and 500 μM, versus control value, FIG. 5
  CD4+CD25+ Foxp3 cells: reduction
Intestinal microbiota; mice
  number of Provotellaceae and some families of Phylum Bacteroidetes: reduce significantly

From patent publication US11865091B2, “Supporting immunomodulatory agent” (Flexopharm Brain GMBH & Co. KG, priority 2014, dated 2024)
